Results taken from US6229016A, “Method for treating tumors using 2-aryl-naphthyridin-4-ones” (priority 2000, dated 2001).

What was measured:
Assay type in all cases: cell-based
[1] = test system: OVCAR-3 ovarian cancer cell line; experiment: NCI in vitro screen, ovarian cancer OVCAR-3; conditions: Homo sapiens, read-out: Cytotoxicity log GI50 (converted)
[2] = test system: HCT-116 colon cancer cell line; experiment: NCI in vitro screen, colon cancer HCT-116; conditions: Homo sapiens; HCT-1.16 (head); HCT-116 (footnote); read-out: Cytotoxicity log GI50 (converted)
[3] = test system: U-251 CNS cancer cell line; experiment: NCI in vitro screen, CNS cancer U-251; conditions: Homo sapiens, read-out: Cytotoxicity log GI50 (converted)
[4] = test system: NCI-H460 non-small cell lung cancer cell line; experiment: NCI in vitro screen, non-small cell lung cancer NCI-H460; conditions: Homo sapiens, read-out: Cytotoxicity log GI50 (converted)
[5] = test system: HL-60(TB) leukemia cell line; experiment: cells; conditions: Homo sapiens; HL-60(TB); read-out: Cytotoxicity log GI50 (converted)
[6] = test system: NCI's 60 human tumor cell line; experiment: NCI 60 human tumor cell line in vitro screen (average / whole panel); conditions: calculated from all cell lines tested, molar concentrations, read-out: average log GI50 (converted)
[7] = test system: SF-295 CNS cancer cell line; experiment: NCI in vitro screen, CNS cancer SF-295; conditions: Homo sapiens, read-out: Cytotoxicity log GI50 (converted)
[8] = test system: PC-3 prostate cancer cell line; experiment: NCI in vitro screen, prostate cancer PC-3; conditions: Homo sapiens, read-out: Cytotoxicity log GI50 (converted)
From the text: (§1) Compounds 41-51 and 53-68 were submitted to NCI and assayed in the NCI's in vitro disease-oriented antitumor screen, which involves determination of a test compound's effects on the growth of approximately 60 human tumor cell lines. See, M. R. Boyd, et al. In Cancer: Principles and Practice of Oncology Updates; De Vita, V. T., Hellman, S., Rosenberg, S. A., Eds; J. B. Lippincoft: Philadelphia, pp 1-12 (1989); and A. Monks, et al. J. Natl. Cancer Inst. 83:757 (1991). These lines include leukemia, non-small cell lung, colon, central nervous system (CNS), melanoma, ovarian, renal, prostate, and breast cancers.
(§2) Compounds 29'-51' were submitted to NCI and assayed in the NCI's in vitro disease-oriented antitumor screen, using the techniques described in Example 5. This assay involves determinations of a test agent's effect on growth parameters against a panel of approximately 60 human tumor cell lines, derived largely from solid tumors, including non-small cell lung, colon, central nervous system, renal, ovarian, prostate, and breast cancers, plus a few leukemia cell lines. The cytotoxic effects of each compound are obtained as GI50 or […] values, which represent the molar drug concentrations required to cause half growth inhibition and total growth inhibition, respectively. The results are expressed for each cell line as average log GI50 values in Table 4, as log GI50 values in Table 5, and as log TGI values and average log TGI values in Table 6.

[9] = test system: SK-MEL-5 melanoma cell line; experiment: NCI in vitro screen, melanoma SK-MEL-5; conditions: Homo sapiens, read-out: Cytotoxicity log GI50 (converted)
From the text: as §1, §2

[10] = test system: MDA-MB-435 breast cancer cell line; experiment: NCI in vitro screen, breast cancer MDA-MB-435; conditions: Homo sapiens, read-out: Cytotoxicity log GI50 (converted)
[11] = test system: 786-0 renal cancer cell line; experiment: NCI in vitro screen, renal cancer 786-0; conditions: Homo sapiens, read-out: Cytotoxicity log GI50 (converted)
From the text: as §1, §2

[12] = test system: MDA-N breast cancer cell line; experiment: NCI in vitro screen, breast cancer MDA-N; conditions: Homo sapiens, read-out: Cytotoxicity log GI50 (converted)
From the text: as §1, §2

Compound | GI50 [1] | GI50 [2] | GI50 [3] | GI50 [4] | GI50 [5] | GI50 [6] | GI50 [7] | GI50 [8] | GI50 [9] | GI50 [10] | GI50 [11] | GI50 [12]
COc1ccccc1-c1cc(=O)c2ccc(C)nc2[nH]1 [Compound 42] | > 100000 nM | 38000 nM | > 100000 nM | 97700 nM | 74100 nM | 79400 nM | > 100000 nM | > 100000 nM | 51300 nM | 21900 nM | > 100000 nM | 20000 nM
Cc1cnc2[nH]c(-c3cccc(Cl)c3)cc(=O)c2c1 [34'] | 22.4 nM | 30.2 nM | 69.2 nM | 50.1 nM | 30.9 nM | 269 nM | 25.1 nM | > 100000 nM | 70.8 nM | < 10 nM | 42.7 nM | > 100000 nM
COc1ccccc1-c1cc(=O)c2c(C)ccnc2[nH]1 [Compound 40] | 12900 nM | 7590 nM | 35500 nM | 24000 nM | 20900 nM | 2820 nM | 23400 nM | 20900 nM | 22400 nM | 6460 nM | 60300 nM | 8320 nM
Cc1cc(C)c2c(=O)cc(-c3cccc(F)c3)[nH]c2n1 [31'] | 18.2 nM | < 10 nM | 64.6 nM | 53.7 nM | 37.2 nM | 85.1 nM | 33.1 nM | 61.7 nM | 37.2 nM | < 10 nM | 35.5 nM | 12.9 nM
Cc1cnc2c(c1)C(=O)CC(c1ccc3ccccc3c1)=N2 [Compound 49, 2-(β-Naphthyl)-6-methyl-1,8-naphthyridin-4-one] | 355 nM | 468 nM | 468 nM | 398 nM | 141 nM | 741 nM | 550 nM | 407 nM | 363 nM | 105 nM | 617 nM | 132 nM
Cc1ccc2c(n1)N=C(c1cccc3ccccc13)CC2=O [Compound 45, 2-(α-Naphthyl)-7-methyl-1,8-naphthyridin-4-one] | < 10 nM | < 10 nM | 15.5 nM | 17.4 nM | < 10 nM | 66.1 nM | 24 nM | 30.2 nM | 13.8 nM | < 10 nM | 6030 nM | < 10 nM
Cc1cc(C)c2c(=O)cc(-c3cccc(Cl)c3)[nH]c2n1 [36'] | 170 nM | 170 nM | 295 nM | 224 nM | 74.1 nM | 347 nM | 47.9 nM | 27.5 nM | 117 nM | 13.2 nM | 204 nM | 19.1 nM
O=c1cc(-c2cccc(Cl)c2)[nH]c2ncccc12 [32'] | 45.7 nM | 28.8 nM | 145 nM | 87.1 nM | 10.5 nM | 229 nM | 63.1 nM | 22.4 nM | 52.5 nM | < 10 nM | 56.2 nM | 17.4 nM
O=C1CC(c2ccc3ccccc3c2)=Nc2ncccc21 [Compound 47, 2-(β-Naphthyl)-1,8-naphthyridin-4-one] | 8320 nM | 3800 nM | 4370 nM | 3800 nM | 1820 nM | 8130 nM | 9120 nM | 10500 nM | 3470 nM | 1780 nM | 5620 nM | 1660 nM
Cc1cnc2[nH]c(-c3cccc(F)c3)cc(=O)c2c1 [29'] | 13.5 nM | 24 nM | 40.7 nM | 38.9 nM | 20.4 nM | 50.1 nM | 27.5 nM | 34.7 nM | 28.2 nM | < 10 nM | 28.2 nM | 11.7 nM
